Consider nine compounds from patent US10273267B2, “Beta-hairpin peptidomimetics as selective elastase inhibitors” (POLYPHOR AG, priority 2013, dated 2019).

SMILES strings stand for the structures. pIC50: −log10 of the molar value. Where a SMILES comes first, the peptide text is derived from it. [ ]: non-standard residue; d: D form. Oic = O=C(O)[C@@H]1C[C@@H]2CCCC[C@@H]2N1; Gly(octyl) = CCCCCCCC[C@H](N)C(=O)O; Aad = N[C@@H](CCCC(=O)O)C(=O)O; AllylGly = C=CC[C@H](N)C(=O)O; Dap = NC[C@H](N)C(=O)O

In general, pIC50 refers to the IC50 on a negative log10 scale, so that one unit is a factor of ten.

Common to all, as to format: biochemical
The target of assay [1] is T1, porcine pancreatic elastase (Sus scrofa, UniProt P00772).
T1 construct: purchased Sigma, USA
T1 sequence (P00772 27-266): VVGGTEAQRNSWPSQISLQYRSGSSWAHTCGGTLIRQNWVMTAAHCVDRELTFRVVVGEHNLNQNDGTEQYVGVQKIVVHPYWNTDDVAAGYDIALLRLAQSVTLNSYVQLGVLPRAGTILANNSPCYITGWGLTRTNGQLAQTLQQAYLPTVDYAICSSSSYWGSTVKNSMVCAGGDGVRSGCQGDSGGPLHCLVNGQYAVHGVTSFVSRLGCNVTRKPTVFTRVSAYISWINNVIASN
In words: Inhibition of porcine pancreatic elastase (hydrolysis of MeOSuc-AAA-pNA). The note with it: for hNE/PPE selectivity: ratio of PPE IC50 to hNE IC50; for pIC50: substrate MeOSuc-AAA-pNA 1 mM, enzyme 15 nM, 37° C., pH8, read-out: Porcine pancreatic elastase (PPE) IC50. The protocol: 2.3 Inhibition of Porcine Pancreatic Elastase
The ability of the peptides of the invention to inhibit the hydrolysis activity of porcine pancreatic elastase (Sigma, USA) using the synthetic tripeptidic substrate MeOSuc-AAA-pNA (Bachem, Switzerland) was determined as follows:
The above substrate (1 mM) and […] porcine pancreatic elastase (15 nM) were incubated at 37° C. with serial dilutions of the peptides (0.5% DMSO final) in assay buffer (50 mM Tris, pH8, 100 mM NaCl, 0.01% Tween20). The release of pNA was followed by monitoring the change in absorbance at 405 nm for 30 minutes. Control assays with the same assay set-up as above, but without peptide, ran linearly. The dose-response data were fitted to the 4-parameter Hill equation providing the IC50 value using Graphpad (Prism 5).

A further assay deals with T2, human proteinase 3 (Homo sapiens, UniProt P24158).
T2 construct: purchased Elastin Products Company, USA
T2 sequence (P24158 28-248): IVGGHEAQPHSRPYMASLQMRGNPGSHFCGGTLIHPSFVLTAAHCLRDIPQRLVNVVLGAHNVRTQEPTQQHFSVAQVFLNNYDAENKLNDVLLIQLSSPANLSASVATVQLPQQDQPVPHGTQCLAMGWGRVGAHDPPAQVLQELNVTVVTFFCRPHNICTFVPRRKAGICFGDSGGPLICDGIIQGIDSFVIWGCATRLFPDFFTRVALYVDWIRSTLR
Briefly: Inhibition of human proteinase 3 (substrate Boc-Ala-Ala-Nva-SBzl). The note with it: for hNE/hPr3 selectivity: ratio of hPr3 IC50 to hNE IC50; for pIC50: substrate Boc-Ala-Ala-Nva-SBzl 1 mM, enzyme 10 nM, 37° C., pH7.4, read-out: Human proteinase 3 (hPr3) IC50. The protocol: 2.4 Inhibition of Human Proteinase 3
The inactivation of human proteinase 3 (Elastin Products Company, USA) by the peptides of the invention using synthetic tripeptidic substrate Boc-Ala-Ala-Nva-SBzl (Elastin Products Company, USA) was determined as follows:
The above substrate (1 mM), 4,4′-dithiodipyridine (250 μM) and human proteinase 3 (10 nM) were incubated at 37° C. with serial dilutions of the peptides (0.5% DMSO final) in assay buffer (50 mM Tris, pH7.4, 150 mM NaCl, 0.01% Tween20). The reaction process was followed by monitoring the change in absorbance at 340 nm for 30 minutes. Control assays with the same assay set-up as above, but without peptide, ran linearly. The dose-response data were fitted to the 4-parameter Hill equation providing the IC50 value using Graphpad (Prism 5).

In assay [2] the target is T3, human neutrophil elastase (Homo sapiens, UniProt P08246).
T3 construct: purchased Serva Electrophoresis, Germany
T3 sequence (P08246 30-267): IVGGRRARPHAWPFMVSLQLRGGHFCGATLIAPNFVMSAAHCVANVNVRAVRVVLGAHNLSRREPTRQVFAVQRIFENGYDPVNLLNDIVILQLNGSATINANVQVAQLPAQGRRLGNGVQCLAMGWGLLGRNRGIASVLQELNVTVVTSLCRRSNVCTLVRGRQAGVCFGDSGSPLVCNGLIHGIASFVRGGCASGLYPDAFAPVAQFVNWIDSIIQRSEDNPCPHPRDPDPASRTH
In words: Inhibition of human neutrophil elastase (hydrolysis of MeOSuc-AAPV-pNA). The note with it: substrate MeOSuc-AAPV-pNA 0.3 mM, enzyme 10 nM, 37° C., pH 8; read-out: Human neutrophil elastase (hNE) IC50. The protocol:
2.2 Inhibition of Human Neutrophil Elastase
The ability of the peptides of the invention to inhibit the hydrolysis activity of human neutrophil elastase (Serva Electrophoresis, Germany) using the synthetic tetrapeptidic substrate MeOSuc-AAPV-pNA (Bachem, Switzerland) was determined as follows:
The above substrate (0.3 mM) and human neutrophil elastase (10 nM) were incubated at 37° C. with serial dilutions of the peptides (1% DMSO final) in assay buffer (50 mM Tris, pH 8, 300 mM NaCl, 0.01% Tween20). The release of pNA was followed by monitoring the change in absorbance at 405 nm for 30 minutes. Control assays with the same assay set-up as above, but without peptide, ran linearly. The dose-response data were fitted to the 4-parameter Hill equation providing the IC50 value using Graphpad (Prism 5).

For `CCCCCCCC[C@@H]1NC(=O)[C@H](CCCCN)NC(=O)[C@@H](CCCCN)NC(=O)[C@H]([C@@H](C)O)NC(=O)[C@H](CCCCN)NC(=O)[C@H](CCC(N)=O)NC(=O)[C@@H]2CCCN2C(=O)[C@@H]2CCCN2C(=O)[C@H]([C@@H](C)CC)NC(=O)[C@H](CO)NC(=O)[C@H](C)NC(=O)[C@H]([C@@H](C)O)NC(=O)[C@H](CCC(=O)O)NC1=O` [Example 28, Cyclo(-OctGly-Glu-Thr-Ala-Ser-Ile-Pro-Pro-GI n-Lys-Thr-^DLys-Lys-)] (cyclo([Gly(octyl)]ETASIPPQKT[dK]K)), in assay [1], the hNE/PPE selectivity is reported as more than 8333 and the pIC50 is less than 4.00. Also, on human proteinase 3, the hNE/hPr3 selectivity is reported as more than 8333 and the pIC50 was less than 4.00. In assay [2], the pIC50 is 7.92.
Regarding `CCCCCCCC[C@@H]1NC(=O)[C@H](CCC(=O)O)NC(=O)[C@@H](CCCCN)NC(=O)[C@H]([C@@H](C)O)NC(=O)[C@H](CCCCN)NC(=O)[C@H](CCC(N)=O)NC(=O)[C@@H]2CCCN2C(=O)[C@@H]2CCCN2C(=O)[C@H]([C@@H](C)CC)NC(=O)[C@H](CO)NC(=O)[C@H](C)NC(=O)[C@H]([C@@H](C)O)NC(=O)[C@H](CCC(=O)O)NC1=O` [Example 29, Cyclo(-OctGly-Glu-Thr-Ala-Ser-Ile-Pro-Pro-Gln-Lys-Thr-^DLys-Glu-)] (cyclo([Gly(octyl)]ETASIPPQKT[dK]E)), the hNE/PPE selectivity in assay [1] amounted to 1085. For the same compound, the negative-log IC50 (pIC50) in assay [1] is 4.89; at human proteinase 3 it was 4.20; in assay [2], 7.93. Further, the hNE/hPr3 selectivity on human proteinase 3 was found to be 5305.
As for `CCCCCCCC[C@@H]1NC(=O)[C@@H]2CCCN2C(=O)[C@H]2CCCN2C(=O)[C@H](Cc2ccc(O)cc2)NC(=O)[C@H](CCCCN)NC(=O)[C@H](CCC(N)=O)NC(=O)[C@@H]2CCCN2C(=O)[C@@H]2CCCN2C(=O)[C@H]([C@@H](C)CC)NC(=O)[C@H](CO)NC(=O)[C@H](C)NC(=O)[C@H]([C@@H](C)O)NC(=O)[C@H](CNC(=O)[C@@H](N)Cc2ccccc2)NC1=O` [Example 14, Cyclo(-OctGly-Dap(Phe)-Thr-Ala-Ser-Ile-Pro-Pro-Gln-Lys-Tyr-^DPro-Pro-)] (cyclo([Gly(octyl)][Dap](Phe)TASIPPQKY[dP]P)), in assay [1], the hNE/PPE selectivity is recorded as 367 and the pIC50 is 5.26. On human proteinase 3, the hNE/hPr3 selectivity came out at 1733 and the negative-log IC50 (pIC50) was 4.59. Besides, the negative logarithm of the IC50 (pIC50) in assay [2] is 7.82.
Take `CCCCCCCC[C@@H]1NC(=O)[C@@H]2CCCN2C(=O)[C@H]2CCCN2C(=O)[C@H]([C@@H](C)O)NC(=O)[C@H](CCCCN)NC(=O)[C@H](CCC(N)=O)NC(=O)[C@@H]2CCCN2C(=O)[C@@H]2CCCN2C(=O)[C@H]([C@@H](C)CC)NC(=O)[C@H](CO)NC(=O)[C@H](C)NC(=O)[C@H]([C@@H](C)O)NC(=O)[C@H](Cc2ccccc2)NC1=O` [Example 13, Cyclo(-OctGly-Phe-Thr-Ala-Ser-Ile-Pro-Pro-Gln-Lys-Thr-^DPro-Pro-)] (cyclo([Gly(octyl)]FTASIPPQKT[dP]P)): the hNE/PPE selectivity in assay [1] is listed as 2119. Besides, the pIC50 in assay [1] was 4.67; on human proteinase 3, less than 4.00; in assay [2], 8.00. Besides, the hNE/hPr3 selectivity at human proteinase 3 was more than 9901.
As for `CC[C@H](C)[C@@H]1NC(=O)[C@H](CO)NC(=O)[C@H](C)NC(=O)[C@H]([C@@H](C)O)NC(=O)[C@H](C(C)C)NC(=O)[C@H](CCCNC(=N)N)NC(=O)[C@@H]2CCCN2C(=O)[C@H]2CCCN2C(=O)[C@H]([C@@H](C)O)NC(=O)[C@H](CCCCN)NC(=O)[C@H](CCC(N)=O)NC(=O)[C@@H]2C[C@@H]3CCCC[C@@H]3N2C(=O)[C@@H]2CCCN2C1=O` [Example 41] (cyclo(RVTASIP[Oic]QKT[dP]P)), in assay [1], the hNE/PPE selectivity is given as more than 12658 and the negative-log IC50 (pIC50) was less than 4.00. Besides, at human proteinase 3, the hNE/hPr3 selectivity was more than 12658 and the negative-log IC50 (pIC50) was less than 4.00. Besides, in assay [2], the negative-log IC50 (pIC50) is 8.10.
Consider `CCCCCCCC[C@@H]1NC(=O)[C@@H]2CCCN2C(=O)[C@H]2CCCN2C(=O)[C@H](CCCC(N)=O)NC(=O)[C@H](CCCCN)NC(=O)[C@H](CCC(N)=O)NC(=O)[C@@H]2CCCN2C(=O)[C@@H]2CCCN2C(=O)[C@H]([C@@H](C)CC)NC(=O)[C@H](CO)NC(=O)[C@H](C)NC(=O)[C@H]([C@@H](C)O)NC(=O)[C@H](CCC(=O)O)NC1=O` [Example 5, Cyclo(-OctGly-Glu-Thr-Ala-Ser-Ile-Pro-Pro-Gln-Lys-hGln-^DPro-Pro-)] (cyclo([Gly(octyl)]ETASIPPQK[Aad](NH2)[dP]P)), for which, in assay [1], the hNE/PPE selectivity came to 161. The values for the pIC50 (in assay [1]; on human proteinase 3; in assay [2]) were 5.80, 5.63 and 8.00, respectively. Further, the hNE/hPr3 selectivity on human proteinase 3 is reported as 237.
On to `CCCCCCCC[C@@H]1NC(=O)[C@H](CCCCN)NC(=O)[C@@H](Cc2ccc(O)cc2)NC(=O)[C@H]([C@@H](C)O)NC(=O)[C@H](CCCCN)NC(=O)[C@H](CCC(N)=O)NC(=O)[C@@H]2CCCN2C(=O)[C@@H]2CCCN2C(=O)[C@H]([C@@H](C)CC)NC(=O)[C@H](CO)NC(=O)[C@H](C)NC(=O)[C@H]([C@@H](C)O)NC(=O)[C@H](CCC(=O)O)NC1=O` [Example 25, Cyclo(-OctGly-Glu-Thr-Ala-Ser-Ile-Pro-Pro-GI n-Lys-Thr-^DTyr-Lys-)] (cyclo([Gly(octyl)]ETASIPPQKT[dY]K)), for which, in assay [1], the hNE/PPE selectivity turned out to be 7031 and the pIC50 is 4.35. Further, on human proteinase 3, the hNE/hPr3 selectivity is 6531 and the pIC50 is 4.38. Moreover, the negative logarithm of the IC50 (pIC50) in assay [2] was 8.19.
With `CCCCCCCC[C@@H]1NC(=O)[C@H](CCCCN)NC(=O)[C@@H](C(C)C)NC(=O)[C@H]([C@@H](C)O)NC(=O)[C@H](CCCCN)NC(=O)[C@H](CCC(N)=O)NC(=O)[C@@H]2CCCN2C(=O)[C@@H]2CCCN2C(=O)[C@H]([C@@H](C)CC)NC(=O)[C@H](CO)NC(=O)[C@H](C)NC(=O)[C@H]([C@@H](C)O)NC(=O)[C@H](CCC(=O)O)NC1=O` [Example 22, Cyclo(-OctGly-Glu-Thr-Ala-Ser-Ile-Pro-Pro-Gln-Lys-Thr-^DVal-Lys-)] (cyclo([Gly(octyl)]ETASIPPQKT[dV]K)), in assay [1], the hNE/PPE selectivity came to 4847 and the pIC50 is 4.22. Moreover, at human proteinase 3, the hNE/hPr3 selectivity is 5677 and the negative logarithm of the IC50 (pIC50) is 4.15. For the same compound, in assay [2], the pIC50 was 7.91.
With `C=CC[C@@H]1NC(=O)[C@H]([C@@H](C)O)NC(=O)[C@H](CCC(=O)O)NC(=O)[C@H](CCC(=O)N[C@@H](Cc2ccccc2)C(=O)O)NC(=O)[C@@H]2CCCN2C(=O)[C@H]2CCCN2C(=O)[C@H]([C@@H](C)O)NC(=O)[C@H](CCCCN)NC(=O)[C@H](CCC(N)=O)NC(=O)[C@@H]2CCCN2C(=O)[C@@H]2CCCN2C(=O)[C@H]([C@@H](C)CC)NC(=O)[C@H](CO)NC1=O` [Example 19, Cyclo(-Glu(Phe)-Glu-Thr-AllylGly-Ser-Ile-Pro-Pro-Gln-Lys-Thr-^DPro-Pro-)] (cyclo(E(Phe)ET[AllylGly]SIPPQKT[dP]P)), in assay [1], the hNE/PPE selectivity is recorded as more than 3030 and the pIC50 is less than 4.00. Moreover, on human proteinase 3, the hNE/hPr3 selectivity is recorded as more than 3030 and the negative logarithm of the IC50 (pIC50) was less than 4.00. Besides, the negative logarithm of the IC50 (pIC50) in assay [2] was 7.48.
